From patent US20210388002A1, “DIMETHOXYBENZENE COMPOUND ANALOGS, METHODS FOR ANALYZING SAID COMPOUNDS AND STANDARD PRODUCTS OF SAID COMPOUNDS” (TAIHO PHARMACEUTICAL CO., LTD., priority 2018, published 2021)

Assay: solubility in water and organic solvents
Assay type: physicochemical
Conditions: free form; water, highly water-soluble organic solvents, highly fat-soluble organic solvents

solubility: easily soluble
Compound: COc1cc(C#Cc2nn([C@H]3CCNC3)c3ncnc(N)c23)cc(OC)c1 [Compound B, (S)-3-((3,5-dimethoxyphenyl)ethynyl)-1-(pyrrolidin-3-yl)-1H-pyrazolo[3,4-d]pyrimidin-4-amine]
